Read-outs that look alike come from different tables or passages of the source.
Key:
[1] = test system: intracellular MRSA; type: cell-based, Staphylococcus aureus; settings: for %GFP+ rep 1 / z-scoreMRSA+ rep 1: replicate 1; for %GFP+ rep 2 / z-scoreMRSA+ rep 2: replicate 2; for %GFP+ rep 3 / z-scoreMRSA+ rep 3: replicate 3; for z-scoreMRSA+ mean: mean of 3 replicates
In short: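 HeLa, MRSA-GFP at MOI ~6.8, 1 h infection; gentamicin 30 µg/ml for 15 min; inhibitor plus gentamicin 5 µg/ml overnight, 37°C/5% CO2; triplicate plates; FACS %GFP+ and cell count; hit = z ≤ -2 MRSA+, z ≥ -3 count.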

[2] = test system: HeLa cells; experiment: Compound screen by flow cytometry: HeLa cell count as surrogate readout of cell viability (z-scoreHeLa); type: cell-based, human
In short: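 HeLa cells were infected with GFP-MRSA (mean MOI 6.8 ± 4.6) for 1 h, and extracellular bacteria were killed with 30 µg/ml gentamicin. Cells were then incubated overnight with kinase inhibitors in 5 µg/ml gentamicin, in triplicate against DMSO controls. Flow-cytometric cell count served as a viability surrogate, expressed as a plate z-score.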

[3] = PKIS compound screen raw data, MRSA-infected HeLa cells
[4] = PKIS compound screen, MRSA-infected HeLa cells
[5] = PKIS compound screen, Yes/No call
[6] = PKIS compound screen, Yes/No call (effect without cell death)
[7] = PKIS compound screen, Yes/No call on z-scoreMRSA+
[8] = PKIS compounds raw data, MRSA-infected HeLa cells
[9] = PKIS compound screen raw data, HeLa cell count, replicate 1
[10] = PKIS compound screen raw data, HeLa cell count, replicate 2
[11] = PKIS compound screen raw data, HeLa cell count, replicate 3
[12] = PKIS compound screen, HeLa cell count, mean of 3 replicates
[13] = PKIS compound screen, HeLa cell count, replicate 1
[14] = PKIS compound screen, HeLa cell count, replicate 2
[15] = PKIS compound screen, HeLa cell count, replicate 3
[16] = PKIS compound screen, Yes/No call on z-scoreHeLa
[17] = PKIS compound screen, mean of 3 replicates
[18] = PKIS compound screen, replicate 1
[19] = PKIS compound screen, replicate 2
[20] = PKIS compound screen, replicate 3
[21] = PKIS compounds raw data, replicate 1, HeLa cell count
[22] = PKIS compounds raw data, replicate 2, HeLa cell count
[23] = PKIS compounds raw data, replicate 3, HeLa cell count
[24] = Yes/No: effect without cell death
[25] = compound screen, MRSA-infected HeLa cells
[26] = compound screen, HeLa cell count, mean of 3 replicates
[27] = compound screen, HeLa cell count, replicate 1
[28] = compound screen, HeLa cell count, replicate 2
[29] = compound screen, HeLa cell count, replicate 3

Structure (SMILES)	%GFP+ rep 1 [1, 3] [%]	%GFP+ rep 2 [1, 3] [%]	%GFP+ rep 3 [1, 3] [%]	effect [1, 5]	hit [1, 6]	z-scoreMRSA+ mean ([1]; PKIS compound screen)	z-scoreMRSA+ rep 1 ([1]; PKIS compound screen)	z-scoreMRSA+ rep 2 ([1]; PKIS compound screen)	z-scoreMRSA+ rep 3 ([1]; PKIS compound screen)	%GFP+ rep 1 [1, 8] [%]	%GFP+ rep 2 [1, 8] [%]	%GFP+ rep 3 [1, 8] [%]	cell count rep 1 [2, 9]	cell count rep 2 [2, 10]	cell count rep 3 [2, 11]	cell death [2, 5]	z-scoreHeLa mean [2, 17]	cell count rep 1 [2, 21]	cell count rep 2 [2, 22]	cell count rep 3 [2, 23]	other results
COC(=O)c1cccc(NC(=O)NC2CCN(c3ccnc(NCc4ccc(F)cc4)n3)CC2)c1 [GSK1379860A]	17.4	15.1	20.5	No	No	0.11	0.51	-0.14	-0.03	29.7	25.3	27.1	26314	10320	10213	No	-1.76	3229	1923	4200	z-scoreMRSA+ mean [1, 4]: -0.58; z-scoreMRSA+ rep 1 [1, 4]: -0.37; z-scoreMRSA+ rep 2 [1, 4]: -1.18; z-scoreMRSA+ rep 3 [1, 4]: -0.20; effect [1, 7]: No; z-scoreHeLa mean [2, 12]: -1.64; z-scoreHeLa rep 1 [2, 13]: -0.66; z-scoreHeLa rep 2 [2, 14]: -2.56; z-scoreHeLa rep 3 [2, 15]: -1.70; cell death [2, 16]: No; z-scoreHeLa rep 1 [2, 18]: -1.69; z-scoreHeLa rep 2 [2, 19]: -2.71; z-scoreHeLa rep 3 [2, 20]: -0.89
CS(=O)(=O)Nc1ccc(-c2cc(-c3ccccc3)cc(C(N)=O)c2N)cc1 [GSK586581A]	17.7	16.5	20.3	–	No	–	–	–	–	–	–	–	20516	41456	41123	–	–	–	–	–	z-scoreMRSA+ mean [1, 4]: -0.17; z-scoreMRSA+ rep 1 [1, 4]: -0.05; z-scoreMRSA+ rep 2 [1, 4]: -0.61; z-scoreMRSA+ rep 3 [1, 4]: 0.16; effect [1, 7]: No; z-scoreHeLa mean [2, 12]: 0.47; z-scoreHeLa rep 1 [2, 13]: 0.06; z-scoreHeLa rep 2 [2, 14]: 1.24; z-scoreHeLa rep 3 [2, 15]: 0.09; cell death [2, 16]: No
Cn1cc(-c2cnc(N)c3c(-c4ccc5c(c4)CCN5C(=O)Cc4ccccc4)csc23)cn1 [GSK2593074A]	–	–	–	–	–	–	–	–	–	24.8	21.4	19.2	–	–	–	–	–	857	369	1620	effect ([1]; Yes/No call from z-scoreMRSA+): No; hit [1, 24]: No; z-scoreMRSA+ mean [1, 25]: 2.45; z-scoreMRSA+ rep 1 [1, 25]: 3.72; z-scoreMRSA+ rep 2 [1, 25]: 2.64; z-scoreMRSA+ rep 3 [1, 25]: 0.98; cell death ([2]; Yes/No call from z-scoreHeLa): Yes; z-scoreHeLa mean [2, 26]: -3.02; z-scoreHeLa rep 1 [2, 27]: -3.54; z-scoreHeLa rep 2 [2, 28]: -2.95; z-scoreHeLa rep 3 [2, 29]: -2.56
Cc1c(Cn2ccn3c(=O)cc(N4CCOCC4)nc23)cccc1C(F)(F)F [GSK2289044B]	13.5	15.4	14.7	–	No	–	–	–	–	–	–	–	23358	26653	34666	–	–	–	–	–	z-scoreMRSA+ mean [1, 4]: -1.29; z-scoreMRSA+ rep 1 [1, 4]: -1.38; z-scoreMRSA+ rep 2 [1, 4]: -0.94; z-scoreMRSA+ rep 3 [1, 4]: -1.55; effect [1, 7]: No; z-scoreHeLa mean [2, 12]: -0.65; z-scoreHeLa rep 1 [2, 13]: 0.49; z-scoreHeLa rep 2 [2, 14]: -1.52; z-scoreHeLa rep 3 [2, 15]: -0.93; cell death [2, 16]: No
Cc1ccccc1CC(=O)N1CCc2cc(-c3cn(C)c4ncnc(N)c34)ccc21 [GSK2603346A]	20.6	20.8	20.5	–	No	–	–	–	–	–	–	–	19984	27840	38532	–	–	–	–	–	z-scoreMRSA+ mean [1, 4]: 0.59; z-scoreMRSA+ rep 1 [1, 4]: 0.87; z-scoreMRSA+ rep 2 [1, 4]: 0.68; z-scoreMRSA+ rep 3 [1, 4]: 0.22; effect [1, 7]: No; z-scoreHeLa mean [2, 12]: -0.54; z-scoreHeLa rep 1 [2, 13]: -0.02; z-scoreHeLa rep 2 [2, 14]: -1.30; z-scoreHeLa rep 3 [2, 15]: -0.32; cell death [2, 16]: No
COc1cc(Nc2ccnc3ccc(C(F)(F)F)cc23)cc(OC)c1OC [GW577382X]	19.6	17.8	18.8	–	–	–	–	–	–	–	–	–	2914	2336	2608	–	–	–	–	–	effect ([1]; Yes/No call from z-scoreMRSA+): No; hit [1, 24]: No; z-scoreMRSA+ mean [1, 25]: -1.17; z-scoreMRSA+ rep 1 [1, 25]: -1.32; z-scoreMRSA+ rep 2 [1, 25]: -1.17; z-scoreMRSA+ rep 3 [1, 25]: -1.02; cell death ([2]; Yes/No call from z-scoreHeLa): No; z-scoreHeLa mean [2, 26]: -1.40; z-scoreHeLa rep 1 [2, 27]: -1.04; z-scoreHeLa rep 2 [2, 28]: -1.51; z-scoreHeLa rep 3 [2, 29]: -1.66
COC(=O)c1ccc2c(c1)C(=Cc1cc(Br)c(O)c(Br)c1)C(=O)N2 [GW405841X]	–	–	–	No	No	-0.17	0.00934	0.0349	-0.56	13.2	13.6	14.0	–	–	–	No	1.55	5478	7140	10804	z-scoreHeLa rep 1 [2, 18]: 0.63; z-scoreHeLa rep 2 [2, 19]: 2.17; z-scoreHeLa rep 3 [2, 20]: 1.84
O=C1Nc2ccc(I)cc2C1=Cc1cc(Br)c(O)c(Br)c1 [GW305074X]	19.6	17.6	21.1	–	–	–	–	–	–	–	–	–	–	–	–	–	–	–	–	–	effect ([1]; Yes/No call from z-scoreMRSA+): No; hit [1, 24]: No; z-scoreMRSA+ mean [1, 25]: -0.96; z-scoreMRSA+ rep 1 [1, 25]: -1.32; z-scoreMRSA+ rep 2 [1, 25]: -1.22; z-scoreMRSA+ rep 3 [1, 25]: -0.33; cell death [2]: No; cell count rep 1 ([2]; human): 1595; cell count rep 2 ([2]; human): 1814; cell count rep 3 ([2]; human): 1196; z-scoreHeLa mean ([2]; human): -2.15; z-scoreHeLa rep 1 ([2]; human): -1.99; z-scoreHeLa rep 2 ([2]; human): -1.91; z-scoreHeLa rep 3 ([2]; human): -2.55
COc1cc(N2CCN(C(C)C)CC2)ccc1Nc1nc(Nc2ccc(F)cc2C(N)=O)c2cc[nH]c2n1 [GSK1220512A]	–	–	–	No	No	1.45	1.80	1.41	1.13	18.8	17.7	19.7	–	–	–	No	-0.69	3725	3908	5195	z-scoreHeLa rep 1 [2, 18]: -0.95; z-scoreHeLa rep 2 [2, 19]: -0.27; z-scoreHeLa rep 3 [2, 20]: -0.85
c1ccc(Cn2ncc3cc(Nc4ncnc5ccccc45)ccc32)cc1 [GW273749A]	–	–	–	No	No	0.17	-0.11	0.34	0.28	26.5	27.8	28.8	–	–	–	No	1.74	9337	8148	8467	z-scoreHeLa rep 1 [2, 18]: 1.98; z-scoreHeLa rep 2 [2, 19]: 1.42; z-scoreHeLa rep 3 [2, 20]: 1.82
COc1ccc2ncnc(Nc3ccc(OCc4ccccc4)cc3)c2c1 [GI261520A]	–	–	–	No	No	-0.60	-0.44	-0.0319	-1.33	11.8	13.4	11.4	–	–	–	No	1.78	6115	6030	12782	z-scoreHeLa rep 1 [2, 18]: 1.21; z-scoreHeLa rep 2 [2, 19]: 1.33; z-scoreHeLa rep 3 [2, 20]: 2.78
COc1ccccc1-c1cc(/C=C2\C(=O)Nc3ncc(Br)cc32)cc(Br)c1O [GW442130X]	–	–	–	–	–	–	–	–	–	14.9	16.4	14.1	–	–	–	–	–	3648	4731	6669	effect ([1]; Yes/No call from z-scoreMRSA+): No; hit [1, 24]: No; z-scoreMRSA+ mean [1, 25]: 0.33; z-scoreMRSA+ rep 1 [1, 25]: 0.55; z-scoreMRSA+ rep 2 [1, 25]: 0.97; z-scoreMRSA+ rep 3 [1, 25]: -0.53; cell death ([2]; Yes/No call from z-scoreHeLa): No; z-scoreHeLa mean [2, 26]: -0.27; z-scoreHeLa rep 1 [2, 27]: -1.02; z-scoreHeLa rep 2 [2, 28]: 0.35; z-scoreHeLa rep 3 [2, 29]: -0.14

— paper PMC10999543, “Identification of kinase modulators as host-directed therapeutics against intracellular methicillin-resistant Staphylococcus aureus” (Frontiers in Cellular and Infection Microbiology, 2024)
